Where two headings read alike, the source gives them in different places. Each block holds one compound with its values, some of them ahead of it.
Experiments:
[1] = tested on: osteosarcoma (MG-63) cell line; experiment: SRB cytotoxicity assay, MG-63 cells; assay type: cell-based, human; conditions: for inhibition of cell proliferation / cytotoxic effect (in words), MG-63: tested until 100 µM
Method: (§1) Fig. 3 The effect of synthesized compounds against the highly metastatic cancer cell lines PC-3 and MG-63 cell lines after 72 h incubation and viability was assessed by the SRB assay. Values represent the mean ± SD of three independent experiments
(§2) The SRB assay was used to evaluate the effect of the synthesized selenium containing heterocyclic compounds on cancer cells according to the previous literatures (see Supporting Information).
(§3) The human prostate cancer cells (PC3) and human osteosarcoma cells (MG-63) were obtained from Nawah Scientific Inc. (Mokatam, Cairo, Egypt) and cultured in DMEM (Dulbecco’s modified eagle’s medium), Gibco, USA, supplemented with fetal bovine serum (FBS) at a concentration of 10% and 100 U/mL of penicillin and streptomycin (PS). The Cells were incubated at 37 °C in a humidified environment that contained 5% CO2.
(§4) Cells were seeded in 96-well plates as aliquots of 100 μL cell suspension and incubated in a complete media for 24 h. Afterward, cells were treated with synthesized compounds at diverse concentrations ranging from 0.01 μM to 100 μM for 72 h. Then, cells were fixed at 4 °C for one hour with 150 μL of 10% trichloroacetic acid (TCA). After washing the cells five times with distilled water, 70 μL of sulforhodamine (SRB) solution (0.4% w/v) was added and incubated for 10 min at room temperature in a dark place. Cells were washed with 1% acetic acid three times and allowed to air-dry. Then, 150 μL of Tris pH 10.5 (10 mM) was added, and the absorbance was measured at 540 nm using a BMG LABTECH®- FLUOstar Omega microplate reader (Ortenberg, Germany). Half maximal inhibitory concentrations (IC50) values were calculated for each experiment using GraphPad Prism 6 software. IC50 values were reported as mean ± SD [53].

[2] = tested on: prostate cancer (PC-3) cell line; experiment: SRB cytotoxicity assay, PC-3 cells; assay type: cell-based, human; conditions: for inhibition of cell proliferation / cytotoxic effect (in words), PC-3: tested until 100 µM
Method: as §1, §2, §3, §4

EGFR kinase = biological target: T1, EGFR kinase (Homo sapiens, UniProt P00533); experiment: EGFR-TK cell-free inhibitory assay; assay type: biochemical
T1 construct: purchased cloud clone SEA757Hu
Method: A cell-free assay was used to investigate the mechanism of inhibition of EGFR kinase according to the reported method (see Supporting Information).
A cell-free assay was used to investigate the mechanism of inhibition of EGFR kinase according to the reported method. […] 200 µM (EGFR) was used. […] Mean values of two independent replicates for each experiment were used for the interpolation.

[3] = Homo sapiens, MG-63, 72 h, read-out: IC50 values (µM) MG-63, SRB assay, 72 h incubation, mean ± SD
[4] = read-out: IC50 values (µM) MG-63, SRB assay, 72 h incubation, mean ± SD
[5] = Homo sapiens, PC-3, 72 h, read-out: IC50 values (µM) PC-3, SRB assay, 72 h incubation, mean ± SD
[6] = read-out: IC50 values (µM) PC-3, SRB assay, 72 h incubation, mean ± SD
[7] = Homo sapiens, MG-63, 72 h, SRB assay, 72 h incubation, mean ± SD, read-out: IC50 values (µM) MG-63
[8] = Homo sapiens, PC-3, 72 h, SRB assay, 72 h incubation, mean ± SD, read-out: IC50 values (µM) PC-3

T1 sequence (P00533 25-1210): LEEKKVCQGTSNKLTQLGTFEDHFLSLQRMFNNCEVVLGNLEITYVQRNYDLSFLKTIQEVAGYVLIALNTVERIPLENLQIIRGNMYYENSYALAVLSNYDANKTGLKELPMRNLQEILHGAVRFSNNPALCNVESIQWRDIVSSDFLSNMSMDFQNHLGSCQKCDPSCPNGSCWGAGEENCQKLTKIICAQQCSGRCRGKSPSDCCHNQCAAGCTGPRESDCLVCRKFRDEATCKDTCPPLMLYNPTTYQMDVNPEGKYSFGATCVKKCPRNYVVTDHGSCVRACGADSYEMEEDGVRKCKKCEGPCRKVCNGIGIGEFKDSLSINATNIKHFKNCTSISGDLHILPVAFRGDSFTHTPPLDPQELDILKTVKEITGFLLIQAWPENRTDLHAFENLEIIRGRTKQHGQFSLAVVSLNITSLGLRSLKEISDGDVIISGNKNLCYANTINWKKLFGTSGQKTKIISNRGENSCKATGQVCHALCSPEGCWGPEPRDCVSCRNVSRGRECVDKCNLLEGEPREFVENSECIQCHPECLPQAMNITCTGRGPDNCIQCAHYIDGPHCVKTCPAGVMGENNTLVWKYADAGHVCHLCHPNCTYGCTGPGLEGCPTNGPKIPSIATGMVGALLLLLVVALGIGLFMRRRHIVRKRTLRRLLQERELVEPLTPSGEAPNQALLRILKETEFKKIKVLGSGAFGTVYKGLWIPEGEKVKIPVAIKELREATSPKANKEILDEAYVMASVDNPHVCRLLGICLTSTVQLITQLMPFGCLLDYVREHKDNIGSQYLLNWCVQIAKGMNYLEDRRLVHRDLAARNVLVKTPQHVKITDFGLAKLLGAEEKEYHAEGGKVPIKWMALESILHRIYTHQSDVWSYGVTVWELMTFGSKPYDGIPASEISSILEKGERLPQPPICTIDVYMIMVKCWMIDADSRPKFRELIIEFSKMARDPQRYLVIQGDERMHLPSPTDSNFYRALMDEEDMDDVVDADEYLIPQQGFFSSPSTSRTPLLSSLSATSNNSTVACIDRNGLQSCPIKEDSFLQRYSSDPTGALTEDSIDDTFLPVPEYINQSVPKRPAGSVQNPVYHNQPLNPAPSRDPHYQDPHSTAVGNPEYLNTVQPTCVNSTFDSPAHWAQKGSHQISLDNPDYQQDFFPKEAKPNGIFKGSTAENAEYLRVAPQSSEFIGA

SMILES: Cc1ccc(N=Nc2c(N)nc3[se]c(C#N)c(N)c3c2N)cc1 [Compound 12b, 3,4,6-Triamino-5-(4-methylphenyl)diazenylselenopheno[2,3-b]pyridine-2-carbonitrile]
- IC50 [1, 3]: < 4 µM
- IC50 [1, 4]: 3.37 ± 0.22 µM
- IC50 [2, 5]: < 4 µM
- IC50 [2, 6]: 2.59 ± 0.02 µM
- IC50 (EGFR kinase): 123 ± 4 nM

- melting point: 236 to 238 °C
SMILES: N#Cc1c([Se][Se]c2nc(N)c(Sc3ccc(Cl)cc3)c(N)c2C#N)nc(N)c(Sc2ccc(Cl)cc2)c1N

- melting point: 176 to 178 °C
SMILES: N#CC[Se]c1nc(N)c(Br)c(N)c1C#N

SMILES: CS(=O)(=O)CCNCc1ccc(-c2ccc3ncnc(Nc4ccc(OCc5cccc(F)c5)c(Cl)c4)c3c2)o1 [Lapatinib, lapatinib, reference compound]
- IC50 [1, 7]: 0.47 ± 0.03 µM
- IC50 [2, 8]: 0.13 ± 0.04 µM

SMILES: COc1ccc(N=Nc2c(N)nc3[se]c(C#N)c(N)c3c2N)cc1 [Compound 12c, 3,4,6-Triamino-5-[(4-methoxyphenyl)diazenyl]selenopheno[2,3-b]pyridine-2-carbonitrile]
- IC50 [1, 3]: < 4 µM
- IC50 [1, 4]: 3.37 ± 0.12 µM
- IC50 [2, 5]: < 4 µM
- IC50 [2, 6]: 2.75 ± 0.09 µM

SMILES: N#Cc1[se]c2nc(N)cc(N)c2c1N [Compound 2, 3,4,6-triamino-2-cyanoselenopheno[2,3-b]pyridine]
- IC50 [1, 3]: > 100 µM
- inhibition of cell proliferation / cytotoxic effect (in words), MG-63 ([1]; SRB assay): without significant inhibition of cell proliferation
- IC50 [2, 5]: > 100 µM
- inhibition of cell proliferation / cytotoxic effect (in words), PC-3 ([2]; SRB assay): without significant inhibition of cell proliferation
- melting point: 258 to 260 °C

SMILES: CC(=O)Nc1cc2c3c(c(C#N)[se]c3n1)N=C(C)N2 [Compound 11, N-(2-cyano-4-methyl-5H-1-seleno-3,5,8-triazaacenaphthylen-7-yl)acetamide]
- IC50 [1, 3]: 62.2 ± 1.51 µM
- inhibition of cell proliferation / cytotoxic effect (in words), MG-63 ([1]; SRB assay): low cytotoxic effects
- IC50 [2, 5]: 34.7 ± 0.77 µM
- inhibition of cell proliferation / cytotoxic effect (in words), PC-3 ([2]; SRB assay): low cytotoxic effects

SMILES: CN(C)c1cc(N)c(C#N)c([Se][Se]c2nc(N(C)C)cc(N)c2C#N)n1 [Compound 4]
- IC50 [1, 3]: 240 ± 3.2 µM
- inhibition of cell proliferation / cytotoxic effect (in words), MG-63 ([1]; SRB assay): without significant inhibition of cell proliferation
- IC50 [2, 5]: 233 ± 2.6 µM
- inhibition of cell proliferation / cytotoxic effect (in words), PC-3 ([2]; SRB assay): without significant inhibition of cell proliferation
- melting point: 172 to 174 °C

- melting point: 198 to 200 °C
SMILES: N#Cc1c([Se][Se]c2nc(N)c(Sc3ccccc3)c(N)c2C#N)nc(N)c(Sc2ccccc2)c1N

- melting point: 148 to 150 °C
SMILES: C[Se]c1nc(N)cc(N)c1C#N

SMILES: COc1cccc2c1C(=O)c1c(O)c3c(c(O)c1C2=O)C[C@@](O)(C(=O)CO)C[C@@H]3O[C@H]1C[C@H](N)[C@H](O)[C@H](C)O1 [DOX, doxorubicin, reference compound]
- IC50 [1, 7]: 9.4 ± 1.1 µM
- IC50 [2, 8]: 7.6 ± 0.45 µM

SMILES: N#Cc1[se]c2nc(N)c(Br)c(N)c2c1N [Compound 7, 3,4,6-triamino-5-bromoselenopheno[2,3-b]pyridine-2-carbonitrile]
- IC50 [1, 3]: > 100 µM
- inhibition of cell proliferation / cytotoxic effect (in words), MG-63 ([1]; SRB assay): without significant inhibition of cell proliferation
- IC50 [2, 5]: > 100 µM
- inhibition of cell proliferation / cytotoxic effect (in words), PC-3 ([2]; SRB assay): without significant inhibition of cell proliferation
- melting point: 268 to 270 °C

SMILES: N#Cc1[se]c2nc(N)c(N=Nc3ccccc3)c(N)c2c1N [Compound 12a, 3,4,6-Triamino-5-[phenyldiazenyl]selenopheno[2,3-b]pyridine-2-carbonitrile]
- IC50 [1, 3]: < 4 µM
- IC50 [1, 4]: 3.45 ± 0.2 µM
- IC50 [2, 5]: < 4 µM
- IC50 [2, 6]: 2.69 ± 0.03 µM
- IC50 (EGFR kinase): 301 ± 12 nM

SMILES: N#Cc1[se]c2nc(N)c(N=Nc3ccc(Cl)cc3)c(N)c2c1N [Compound 12d, 3,4,6-Triamino-5-[(4-chlorophenyl)diazenyl]selenopheno[2,3-b]pyridine-2-carbonitrile]
- IC50 [1, 3]: < 4 µM
- IC50 [1, 4]: 3.93 ± 0.23 µM
- IC50 [2, 5]: < 4 µM
- IC50 [2, 6]: 3.08 ± 0.01 µM

SMILES: Nc1nc2[se]c(-c3nc4ccccc4s3)c(N)c2c(N)c1Br [Compound 9, 2-(benzo[d]thiazol-2-yl)-5-bromo-selenopheno[2,3-b]-pyridine-3,4,6-triamine]
- IC50 [1, 3]: 62.8 ± 3.45 µM
- inhibition of cell proliferation / cytotoxic effect (in words), MG-63 ([1]; SRB assay): low cytotoxic effects
- IC50 [2, 5]: 51.1 ± 3 µM
- inhibition of cell proliferation / cytotoxic effect (in words), PC-3 ([2]; SRB assay): low cytotoxic effects

— PMC11785687, “An efficient methodological approach for synthesis of selenopyridines: generation, reactions, anticancer activity, EGFR inhibitory activity and molecular docking studies” (Molecular Diversity, 2024)
